Experimental data from a compilation of properties of binary mixtures (doi:10.7498/aps.66.196101).

Assay: xn = mol fraction of the nth substance listed
Details: 100 kPa

CCCC[n+]1ccccc1.N#C[N-]C#N + O
Details | electrical conductivity, x1 = 0.9189 [S/m] | electrical conductivity, x1 = 0.9335 [S/m] | electrical conductivity, x1 = 0.9486 [S/m] | electrical conductivity, x1 = 0.9642 [S/m] | electrical conductivity, x2 = 0.0198 [S/m] | viscosity, x1 = 0.9257 [mPa·s] | viscosity, x1 = 0.9415 [mPa·s] | viscosity, x1 = 0.9569 [mPa·s] | viscosity, x1 = 0.9726 [mPa·s] | viscosity, x2 = 0.0111 [mPa·s]
298.15 K | 1.03 | 0.997 | 0.968 | – | 0.903 | 28.23 | 29.04 | – | 31.13 | 32.25
303.15 K | – | – | – | 1.08 | 1.06 | 23.59 | 24.03 | – | 25.61 | 26.58
308.15 K | 1.41 | 1.38 | 1.34 | 1.29 | 1.26 | 19.79 | 20.18 | 20.75 | 21.47 | 22.17
313.15 K | 1.65 | 1.6 | 1.57 | – | 1.5 | – | 17.11 | – | 18.19 | 18.73
318.15 K | 1.93 | – | 1.85 | 1.81 | 1.76 | – | 14.67 | 15 | – | 16.14
323.15 K | 2.32 | 2.26 | 2.18 | 2.11 | 2.05 | 12.11 | 12.4 | – | 13.13 | –
328.15 K | 2.51 | 2.47 | 2.42 | 2.36 | 2.3 | – | – | 11.08 | 11.44 | 11.84
333.15 K | 2.85 | 2.81 | – | – | 2.65 | 9.38 | 9.57 | – | 10.1 | 10.43
338.15 K | 3.22 | 3.16 | 3.1 | 3.05 | 2.99 | 8.34 | – | 8.65 | 8.93 | 9.19

CCCCC[n+]1ccccc1.N#C[N-]C#N + O
Details | electrical conductivity, x1 = 0.9199 [S/m] | electrical conductivity, x1 = 0.9356 [S/m] | electrical conductivity, x1 = 0.9518 [S/m] | electrical conductivity, x1 = 0.9685 [S/m] | electrical conductivity, x2 = 0.0142 [S/m] | viscosity, x1 = 0.9199 [mPa·s] | viscosity, x1 = 0.9345 [mPa·s] | viscosity, x1 = 0.9518 [mPa·s] | viscosity, x1 = 0.9674 [mPa·s] | viscosity, x2 = 0.0154 [mPa·s]
298.15 K | 0.687 | – | 0.648 | 0.63 | 0.611 | 41 | 42.1 | 43.4 | 44.7 | 45.9
303.15 K | 0.865 | – | 0.798 | 0.761 | 0.719 | 33.3 | 34.1 | 35.1 | 36 | 37
308.15 K | 1.08 | 1.03 | – | 0.926 | 0.873 | 27.4 | 28.1 | – | – | 30.4
313.15 K | – | 1.19 | 1.13 | 1.09 | 1.03 | – | 23.49 | 24.01 | 24.6 | 25.4
318.15 K | 1.42 | 1.39 | 1.33 | – | – | 19.45 | 19.85 | 20.32 | 20.87 | 21.39
323.15 K | – | 1.6 | 1.55 | – | 1.43 | – | – | 16.27 | – | –
328.15 K | 1.86 | – | 1.76 | 1.7 | – | 13.96 | – | 14.48 | 14.81 | –
333.15 K | 2.08 | 2.03 | 1.97 | 1.92 | 1.88 | 12.2 | 12.43 | 12.69 | 12.99 | 13.26
338.15 K | 2.34 | 2.29 | – | 2.17 | 2.12 | 10.78 | 10.9 | – | 11.32 | 11.64

CCn1cc[n+](C)c1.N[C@@H](CO)C(=O)[O-] + O
electrical conductivity [S/m]
Details | 303.15 K | 308.15 K | 313.15 K | 318.15 K | 323.15 K | 328.15 K | 333.15 K | 338.15 K
x1 = 0.8695 | 0.102 | 0.14 | 0.176 | – | 0.276 | 0.348 | – | 0.526
x1 = 0.8836 | 0.1 | 0.138 | 0.174 | – | 0.273 | – | – | 0.522
x1 = 0.8982 | 0.0982 | 0.135 | 0.172 | 0.218 | 0.271 | 0.343 | 0.429 | 0.518
x1 = 0.9131 | 0.0964 | – | – | 0.216 | – | 0.341 | 0.426 | 0.515
x1 = 0.9275 | – | 0.13 | – | 0.213 | 0.266 | 0.338 | 0.423 | –

CCCCCC[n+]1ccccc1.N#C[N-]C#N + O
Details | electrical conductivity, x1 = 0.9076 [S/m] | electrical conductivity, x1 = 0.9239 [S/m] | electrical conductivity, x1 = 0.9408 [S/m] | electrical conductivity, x1 = 0.9582 [S/m] | electrical conductivity, x1 = 0.9762 [S/m] | viscosity, x1 = 0.9152 [mPa·s] | viscosity, x1 = 0.9306 [mPa·s] | viscosity, x1 = 0.9488 [mPa·s] | viscosity, x1 = 0.9665 [mPa·s] | viscosity, x2 = 0.0151 [mPa·s]
298.15 K | 0.554 | 0.532 | 0.512 | – | – | 49.3 | – | 51.8 | 53.7 | –
303.15 K | 0.682 | 0.66 | 0.642 | 0.615 | 0.588 | 39.19 | 40.28 | 41.67 | – | 45.48
308.15 K | 0.817 | – | 0.769 | 0.739 | 0.711 | 32.18 | 33.01 | 34.12 | 35.44 | 37.16
313.15 K | 0.997 | 0.958 | 0.927 | 0.889 | 0.839 | 26.76 | 27.39 | 28.15 | 29.09 | 30.51
318.15 K | 1.17 | 1.12 | – | 1.05 | 1 | – | 23.12 | 23.8 | – | 25.35
323.15 K | 1.34 | 1.29 | 1.26 | 1.22 | 1.17 | 18.75 | 19.06 | 19.48 | 20.12 | 21.03
328.15 K | 1.52 | – | 1.42 | 1.39 | – | – | 16.38 | – | 17.36 | 18.12
333.15 K | 1.73 | 1.68 | 1.64 | 1.59 | 1.55 | 13.84 | 14.07 | 14.44 | 14.95 | 15.67
338.15 K | – | 1.9 | – | 1.8 | 1.75 | – | 12.38 | 12.75 | 13.17 | –
